From patent publication US20160067247A1, “NOVEL USE” (GlaxoSmithKline Intellectual Property (No.2) Limited, priority 2012, published 2016)
Where two headings read alike, the source gives them in different places.

Test system: primary human lung fibroblasts
Test: 72 hour cell population growth, MTS assay (CellTiter 96 AQueous)
Type: cell-based
Conditions: for IC50: Homo sapiens, Fibroblast, 72 h, 10% FBS, read-out: mean pIC50, inhibition of cell growth (MTS) (converted)
Experimental: Primary human fibroblasts were isolated by explant culture from non-IPF lung tissue, obtained post mortem following sudden trauma, and IPF lung tissue obtained from the lungs of IPF patients which were removed for transplantation or biopsy. Explants were cultured in DMEM containing high glucose and sodium pyruvate (PAA laboratories, catalogue #E15-011) with penicillin/streptomycin (Sigma #P4333), amphotericin B (Sigma #A2942), L-glutamine (Gibco #25030) and 20% FBS (foetal bovine serum, Lonza, catalogue #14-801F, Lot #1SB003) at 37° C., 100% humidity, 10% CO2. Cells were designated non-IPF (UCL marked 0110 and 0610) and IPF (UCL marked 0207, 0208, 0308, 0507 and 0508) based on medical diagnosis.
Human lung primary fibroblast cell lines were cultured in DMEM containing high glucose and sodium pyruvate supplemented with L-glutamine, penicillin/streptomycin and 10% FBS (complete DMEM) at 37° C., 100% humidity, 10% CO2. Cells were split into T175 flasks (NUNC #159910) 2 to 3 days prior to assay set-up at a density which yields approximately 70-80% confluence at time of harvest for assay. […]
For reading 20 μL of CellTiter 96™ AQueous non-radioactive cell growth assay (MTS) reagent (Promega #G5430) was added to all wells. Plates were incubated for a further 2 hours at 37° C., 100% humidity, 10% CO2 then read at 490 nm on a Versamax microplate reader using Softmax Pro v5 software. Readings were corrected for FBS discoloration as per manufacturer's instructions, by the subtraction of values from media control (no cell) wells.
The maximum fitted (upper asymptote) value for each experiment and used as the 100% reference response. The MTS signal (with media background values subtracted) in the presence of increasing log Molar concentrations of 2,4-difluoro-N-{2-(methyloxy)-5-[4-(4-pyridazinyl)-6-quinolinyl]-3-pyridinyl}benzenesulfonamide were expressed as a % of the maximum asymptote. […]
In a subset of experiments, where cell growth was measured in parallel with activation of caspase 3/7, T0 readings were taken when serum free medium was changed to 10% FBS and compound added. […]

COc1ncc(-c2ccc3nccc(-c4ccnnc4)c3c2)cc1NS(=O)(=O)c1ccc(F)cc1F [2,4-difluoro-N-{2-(methyloxy)-5-[4-(4-pyridazinyl)-6-quinolinyl]-3-pyridinyl}benzenesulfonamide]
IC50 (IPF fibroblasts, n=5 cell lines (+/-0.1 SEM)): 31.6 nM | IC50 (primary human non-IPF fibroblasts, n=2 lines (±0.2 SEM)): 20 nM | concentration at which MTS signal with 10% FBS appeared lower than no FBS controls (reduction in cell number, potentially indicative of cell death) (fibroblasts): > 30 nM
